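In this assay, cells in 96-well plates receive the compound at five concentrations for 48 hours. Endpoints are linearly interpolated between the surrounding concentrations. GI50: concentration for 50% inhibition of growth.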 Calls of active or inactive are those of the source. No stated cut-off is given here; in the data, active = GI50 up to about 1.1 µM and inactive = higher.
Assays:
Test in all cases: inhibition of tumour cell growth, NCI panel, 48 h
[1] = tested on: MDA-MB-231
[2] = tested on: UACC-257
[3] = tested on: MDA-N
[4] = tested on: NCI-H23
[5] = tested on: UO-31
[6] = tested on: SNB-75
[7] = tested on: HCC 2998
[8] = tested on: Malme-3M
[9] = tested on: SK-MEL-28
[10] = tested on: HL-60
[11] = tested on: TK-10
[12] = tested on: M14
[13] = tested on: BT-549
[14] = tested on: RPMI-8226
[15] = tested on: T47D
[16] = tested on: EKVX
[17] = tested on: U-251
[18] = tested on: ACHN
[19] = tested on: A498
[20] = tested on: IGROV-1

| SMILES | GI50 [1] | GI50 [2] | GI50 [3] | GI50 [4] | GI50 [5] | GI50 [6] | GI50 [7] | GI50 [8] | GI50 [9] | GI50 [10] | GI50 [11] | GI50 [12] | GI50 [13] | GI50 [14] | GI50 [15] | GI50 [16] | GI50 [17] | GI50 [18] | GI50 [19] | GI50 [20] |
| --- | --- | --- | --- | --- | --- | --- | --- | --- | --- | --- | --- | --- | --- | --- | --- | --- | --- | --- | --- | --- |
| CC(=O)Nc1sc([N+](=O)[O-])cc1S(=O)(=O)c1ccc(Cl)cc1 | 4.23 µM (inactive) | 2.64 µM (inactive) | 3.92 µM (inactive) | 2.39 µM (inactive) | 3.09 µM (inactive) | 2.21 µM (inactive) | 2.04 µM (inactive) | 2.48 µM (inactive) | 11 µM (inactive) | 1.92 µM (inactive) | 5.28 µM (inactive) | 2.02 µM (inactive) | 3.64 µM (inactive) | 3.14 µM (inactive) | 2.04 µM (inactive) | 3.59 µM (inactive) | 4.22 µM (inactive) | 2.36 µM (inactive) | 3.17 µM (inactive) | 4.69 µM (inactive) |
| COc1ccc(/C=C2\CCC(Cc3ccccc3)(CN(C)C)C2=O)cc1 (stereo not given) | 98.9 µM (inactive) | 25.2 µM (inactive) | 38.3 µM (inactive) | 44 µM (inactive) | 54.3 µM (inactive) | 94.2 µM (inactive) | 24.4 µM (inactive) | 42.3 µM (inactive) | > 72.9 µM (inactive) | 19.7 µM (inactive) | > 100 µM (inactive) | 26.7 µM (inactive) | 68.5 µM (inactive) | 22.2 µM (inactive) | 46.7 µM (inactive) | 42.5 µM (inactive) | 61.7 µM (inactive) | 82 µM (inactive) | 58.6 µM (inactive) | > 100 µM (inactive) |
| CC(C)=CCc1[nH]c2ccccc2c1C1=C(O)C(=O)C(c2c(CC=C(C)C)[nH]c3ccccc23)=C(O)C1=O | 1.28 µM (inactive) | 2.12 µM (inactive) | 1.04 µM (active) | 1.91 µM (inactive) | 1.49 µM (inactive) | 0.604 µM (active) | 1.01 µM (active) | 0.628 µM (active) | 0.757 µM (active) | 2.19 µM (inactive) | – | 3.24 µM (inactive) | 0.419 µM (active) | 2.3 µM (inactive) | 2.76 µM (inactive) | 2.19 µM (inactive) | 0.587 µM (active) | 1.56 µM (inactive) | 1.21 µM (inactive) | 0.573 µM (active) |
| Cn1c(=O)[nH]c2nccnc2c1=O | > 10 µM (inactive) | > 10 µM (inactive) | > 10 µM (inactive) | > 10 µM (inactive) | > 10 µM (inactive) | > 10 µM (inactive) | > 10 µM (inactive) | > 10 µM (inactive) | > 10 µM (inactive) | > 10 µM (inactive) | > 10 µM (inactive) | > 10 µM (inactive) | > 10 µM (inactive) | > 10 µM (inactive) | > 10 µM (inactive) | > 10 µM (inactive) | > 10 µM (inactive) | > 10 µM (inactive) | > 10 µM (inactive) | > 10 µM (inactive) |
| COC(=O)N/N=C(\c1ccccc1)c1ccc(OC)cc1 | > 100 µM (inactive) | > 100 µM (inactive) | > 100 µM (inactive) | > 100 µM (inactive) | 35.1 µM (inactive) | 78.7 µM (inactive) | > 100 µM (inactive) | > 100 µM (inactive) | > 100 µM (inactive) | > 100 µM (inactive) | > 100 µM (inactive) | > 100 µM (inactive) | > 100 µM (inactive) | > 100 µM (inactive) | > 100 µM (inactive) | > 100 µM (inactive) | > 100 µM (inactive) | – | > 100 µM (inactive) | 59.6 µM (inactive) |
| Nc1cc(-c2ccc(Cl)cc2)nn1-c1nc2ccccc2nc1-c1ccccc1 | > 100 µM (inactive) | > 100 µM (inactive) | > 100 µM (inactive) | – | – | 27.6 µM (inactive) | > 100 µM (inactive) | 50.9 µM (inactive) | 79.4 µM (inactive) | > 100 µM (inactive) | 77.1 µM (inactive) | > 100 µM (inactive) | > 100 µM (inactive) | 37.5 µM (inactive) | 13.3 µM (inactive) | > 100 µM (inactive) | 48.1 µM (inactive) | 70.6 µM (inactive) | > 100 µM (inactive) | 38.3 µM (inactive) |
| CC1(C)[N+]([O-])=[N+]([O-])C1(C)O (stereo not given) | > 100 µM (inactive) | > 100 µM (inactive) | > 100 µM (inactive) | > 100 µM (inactive) | > 100 µM (inactive) | > 100 µM (inactive) | > 100 µM (inactive) | > 100 µM (inactive) | > 100 µM (inactive) | > 100 µM (inactive) | > 100 µM (inactive) | > 100 µM (inactive) | > 100 µM (inactive) | > 100 µM (inactive) | > 100 µM (inactive) | > 100 µM (inactive) | > 100 µM (inactive) | – | > 100 µM (inactive) | > 100 µM (inactive) |
